According to US20200061062A1, “INHIBITORS OF HUMAN PHOSPHATIDYLINOSITOL 3-KINASE DELTA” (ICOS Corporation, priority 2000, published 2020):
Where “and” joins values, the source holds several entries; their conditions need not be identical. Equal entries are not always repeated. Where two headings read alike, the source gives them in different places.

What was measured:
PI3Kγ [1] = biological target: T1, PI3Kγ (Homo sapiens, UniProt P48736); experiment: Biochemical assay using 200 μM ATP, Gamma
T1 construct: His tag (pFastbac HTb vector) (N); FLAG (N); made in house; host or cells: Sf21 insect cells (baculovirus)
T1 sequence (P48736 whole entry): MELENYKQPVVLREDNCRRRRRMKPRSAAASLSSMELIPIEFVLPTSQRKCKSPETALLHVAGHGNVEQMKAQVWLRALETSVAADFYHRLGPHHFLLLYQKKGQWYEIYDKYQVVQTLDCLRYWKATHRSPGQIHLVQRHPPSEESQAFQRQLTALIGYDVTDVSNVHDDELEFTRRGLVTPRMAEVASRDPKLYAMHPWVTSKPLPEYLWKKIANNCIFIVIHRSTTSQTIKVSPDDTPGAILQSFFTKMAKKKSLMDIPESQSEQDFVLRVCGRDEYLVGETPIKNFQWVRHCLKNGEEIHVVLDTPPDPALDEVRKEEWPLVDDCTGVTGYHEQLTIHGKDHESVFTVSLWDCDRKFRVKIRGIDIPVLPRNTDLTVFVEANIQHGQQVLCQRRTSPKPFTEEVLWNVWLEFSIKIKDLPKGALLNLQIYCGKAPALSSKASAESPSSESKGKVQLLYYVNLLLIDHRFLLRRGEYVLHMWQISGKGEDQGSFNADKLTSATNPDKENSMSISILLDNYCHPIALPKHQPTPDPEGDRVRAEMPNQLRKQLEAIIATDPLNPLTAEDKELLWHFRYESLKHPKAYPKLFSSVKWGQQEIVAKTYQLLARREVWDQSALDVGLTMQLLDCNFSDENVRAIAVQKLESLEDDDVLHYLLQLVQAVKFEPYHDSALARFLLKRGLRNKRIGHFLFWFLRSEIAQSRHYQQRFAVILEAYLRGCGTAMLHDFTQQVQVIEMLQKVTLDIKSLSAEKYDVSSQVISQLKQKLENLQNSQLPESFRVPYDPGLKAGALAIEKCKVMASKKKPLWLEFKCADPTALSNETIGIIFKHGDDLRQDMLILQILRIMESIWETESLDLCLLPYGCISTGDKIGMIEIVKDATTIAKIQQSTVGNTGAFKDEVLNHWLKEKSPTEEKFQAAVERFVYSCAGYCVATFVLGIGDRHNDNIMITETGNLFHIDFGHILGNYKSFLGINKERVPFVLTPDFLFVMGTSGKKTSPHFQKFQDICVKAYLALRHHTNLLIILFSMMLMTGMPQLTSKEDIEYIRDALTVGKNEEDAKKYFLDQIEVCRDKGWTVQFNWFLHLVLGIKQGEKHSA
Method: (§3) PI3Kδ catalyzes a phosphotransfer from γ-[^32P]ATP to PIP2/PS liposomes at the D3′ position of the PIP2 lipid inositol ring. This reaction is MgCl2 dependent and is quenched in high molarity potassium phosphate buffer pH 8.0 containing 30 mM EDTA. […] The reaction products (and all unlabelled products) are transferred to a 96-well, prewetted PVDF filter plate, filtered, and washed in high molarity potassium phosphate. Scintillant is added to the dried wells and the incorporated radioactivity is quantitated.
(§4) This dilution established a final concentration of 200 μM ATP in the reaction volume. The reaction was stopped with 150 μL quench buffer (1.0 M potassium phosphate pH 8.0, 30 mM EDTA). A portion of the quenched solution (180 μL) was then transferred to a PVDF filter plate (Millipore # MAIP NOB prewetted with sequential 200 μL washes of 100% methanol, water, and finally 1.0 M potassium phosphate pH 8.0 wash buffer).
(§5) The PVDF filter plate was aspirated under moderate vacuum (2-5 mm Hg), washed with 5×200 μL of wash buffer, and then dried by aspiration. The filter was subsequently blotted, allowed to air dry completely, and inserted into a Wallac counting cassette with 50 μL of Ecoscint scintillation cocktail added per well.
(§6) Subsequent selectivity assays were done similarly using the same 3× substrate stocks except they contained 0.05 mCi/mL γ[^32P]ATP and 3 mM PIP2. Subsequent selectivity assays also used the same 3× enzyme stocks, except they now contained 3 nM of any given PI3K isoform.
(§7) For all selectivity assays, the test compounds were weighed out and dissolved into 10-50 mM stocks in 100% DMSO (depending on their respective solubilities) and stored at −20° C. […] From these dilutions, 20 μL was added into the assay wells alongside water blanks used for the enzyme (positive) control and the no enzyme (background) control.
(§8) This selectivity protocol is identical to that described above, except the 3× stock ATP concentration was 600 μM.

basophils = experiment: Basophil histamine release assay; assay type: cell-based, human
Method: Assessment of the effect of a compound of the invention on basophil function was tested using a conventional histamine release assay, generally in accordance with the method described in Miura et al., J Immunol, 162:4198-206 (1999). Briefly, enriched basophils were preincubated with test compounds at several concentrations from 0.1 nM to 1,000 nM, for 10 min at 37° C. Then, polyclonal goat antihuman IgE (0.1 μg/mL) or fMLP was added, and allowed to incubate for an additional 30 min. Histamine released into the supernatant was measured using an automated fluorometric technique. Two compounds were tested, shown below.

T cell proliferation = experiment: Stimulated T cell proliferation (Mouse TCE Stim, Table 4); assay type: cell-based; details: read-out: Mouse TCE Stim (EC50)
[2] = tested on: Murine splenocytes (Balb/c); experiment: B cell proliferation in response to cell surface IgM stimulation; assay type: cell-based; details: Mus musculus, Splenocyte; stimulated B cell proliferation; read-out: Mouse BCR Stim (EC50)
Procedure, shortened: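 Balb/c splenocytes (2×10^5/well, 10% FBS/RPMI) preincubated 30-60 min with inhibitor, then stimulated with goat F(ab′)2 anti-mouse IgM μ-chain at 25 μg/mL final. Cultured 3 days at 37° C., [^3H]-thymidine pulsed for final 4 h; incorporation counted as CPM. Values are EC50 (μM).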

human neutrophils [3] = experiment: Elastase exocytosis from neutrophils (fMLP-induced); assay type: cell-based; details: neutrophil (PMN) elastase release
Procedure, shortened: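 Human blood neutrophils (Ficoll-Hypaque) treated with compound or DMSO, then stimulated 90 min at 37 °C with 1 μM fMLP plus 0.01 mg/mL cytochalasin B, 1.0 μM NaN3 and 5 μg/mL L-methionine. Supernatant elastase read at 410 nm over 2 h on MeO-suc-AAPV-pNA, normalized to uninhibited; EC50 in μM.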

PI3Kδ [4] = biological target: T2, PI3Kδ (Homo sapiens, UniProt O00329, S253N); experiment: Biochemical assay using 200 μM ATP, Delta;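 note: radiometric filter-binding assay: PI3Kδ transfers ³²P from γ-[³²P]ATP onto PIP2/PS liposomes, counted by scintillation, enzyme-only wells as positive control, no-enzyme wells as background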
T2 sequence (O00329 whole entry S253N): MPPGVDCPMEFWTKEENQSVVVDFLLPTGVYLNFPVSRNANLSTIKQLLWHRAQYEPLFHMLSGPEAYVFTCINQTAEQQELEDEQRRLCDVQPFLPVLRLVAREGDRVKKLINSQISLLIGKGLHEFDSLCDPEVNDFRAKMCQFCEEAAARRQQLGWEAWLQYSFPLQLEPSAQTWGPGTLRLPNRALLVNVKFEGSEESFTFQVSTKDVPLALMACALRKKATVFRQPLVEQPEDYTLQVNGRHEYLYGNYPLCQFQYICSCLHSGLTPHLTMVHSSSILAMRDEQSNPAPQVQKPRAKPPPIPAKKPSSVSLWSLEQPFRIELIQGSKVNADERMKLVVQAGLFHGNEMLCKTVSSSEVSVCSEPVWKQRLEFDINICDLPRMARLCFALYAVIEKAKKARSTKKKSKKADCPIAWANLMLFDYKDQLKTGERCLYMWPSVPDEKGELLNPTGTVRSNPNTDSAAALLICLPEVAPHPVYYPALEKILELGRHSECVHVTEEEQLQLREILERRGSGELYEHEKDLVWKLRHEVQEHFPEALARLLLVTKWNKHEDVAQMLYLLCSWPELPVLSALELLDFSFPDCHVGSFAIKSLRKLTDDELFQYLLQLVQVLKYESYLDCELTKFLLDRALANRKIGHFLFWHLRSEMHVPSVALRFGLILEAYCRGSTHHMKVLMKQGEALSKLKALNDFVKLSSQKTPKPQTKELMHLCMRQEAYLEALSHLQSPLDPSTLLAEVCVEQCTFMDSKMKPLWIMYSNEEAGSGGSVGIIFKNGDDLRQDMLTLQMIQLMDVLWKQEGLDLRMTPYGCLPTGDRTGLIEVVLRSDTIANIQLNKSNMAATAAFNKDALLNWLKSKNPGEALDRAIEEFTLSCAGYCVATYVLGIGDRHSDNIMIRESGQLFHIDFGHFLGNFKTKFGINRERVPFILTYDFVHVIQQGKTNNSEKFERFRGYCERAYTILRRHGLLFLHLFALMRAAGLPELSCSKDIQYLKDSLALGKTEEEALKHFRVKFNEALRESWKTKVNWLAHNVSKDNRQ
T2 sequence (P27986 whole entry partner): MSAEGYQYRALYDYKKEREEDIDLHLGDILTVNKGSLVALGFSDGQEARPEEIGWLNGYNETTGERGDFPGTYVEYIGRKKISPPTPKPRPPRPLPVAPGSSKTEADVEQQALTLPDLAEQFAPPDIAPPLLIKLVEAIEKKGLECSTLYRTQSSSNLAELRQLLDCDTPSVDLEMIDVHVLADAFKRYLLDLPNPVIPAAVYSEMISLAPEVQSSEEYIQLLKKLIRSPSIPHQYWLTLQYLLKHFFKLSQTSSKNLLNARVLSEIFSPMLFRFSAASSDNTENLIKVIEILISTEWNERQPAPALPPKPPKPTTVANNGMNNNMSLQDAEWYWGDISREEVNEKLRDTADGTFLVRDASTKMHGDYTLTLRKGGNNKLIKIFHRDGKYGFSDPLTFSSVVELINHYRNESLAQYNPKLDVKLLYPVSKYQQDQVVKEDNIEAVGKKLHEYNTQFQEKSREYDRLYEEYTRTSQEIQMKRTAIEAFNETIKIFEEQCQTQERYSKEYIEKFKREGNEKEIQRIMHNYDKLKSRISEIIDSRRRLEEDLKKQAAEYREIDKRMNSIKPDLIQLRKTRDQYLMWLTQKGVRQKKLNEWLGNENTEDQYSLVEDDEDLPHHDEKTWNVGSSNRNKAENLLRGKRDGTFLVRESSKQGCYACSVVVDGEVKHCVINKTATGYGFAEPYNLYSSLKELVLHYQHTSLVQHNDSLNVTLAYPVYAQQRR

PI3Kδ [5] = biological target: T2, PI3Kδ; experiment: Biochemical assay of PI3K potency and selectivity using 20 μM ATP, Delta; design: His tag (pFastbac HTb vector) (N); FLAG; made in house; host or cells: Sf21 insect cells (baculovirus)
Procedure, shortened: (§1)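 Radioactive phosphate transfer from γ-[32P]ATP onto PIP2/PS liposomes was measured in 20 mM HEPES, pH 7.4, at 20 μM ATP. The 3× substrate stock contained […] and 6 μM PIP2/PS.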

PI3Kγ [6] = biological target: T1, PI3Kγ; experiment: Biochemical assay of PI3K potency and selectivity using 20 μM ATP, Gamma
Description: Recombinant baculoviruses containing the above clones were generated using manufacturer's recommended protocol (Life Technologies). Baculoviruses expressing His-tagged p110α, p110γ, or p110δ catalytic subunit and p85 subunit were coinfected into Sf21 insect cells. To enrich the heterodimeric enzyme complex, an excess amount of baculovirus expressing p85 subunit was infected, and the His-tagged p110 catalytic subunit complexed with p85 was purified on nickel affinity column. […] In an alternate approach, p101 can be cloned into baculovirus, to permit coexpression with its preferred binding partner p110γ. […]

human neutrophils [7] = experiment: fMLP-induced human neutrophil migration; assay type: cell-based; details: neutrophil (PMN) migration, read-out: Human PMN Migration (EC50)
Method: Neutrophils have the intrinsic capacity to migrate through tissues, and are one of the first cell types to arrive at the sites of inflammation or tissue injury. The effect of D-000 on neutrophil migration towards a concentration gradient of fMLP was measured. The day before the migration assays were performed, 6-well plates were coated with recombinant ICAM-1/Fc fusion protein (Van der Vieren et al., Immunity, 3:683-690 (1995)) (25 μg/mL in bicarbonate buffer, pH 9.3) and left overnight at 4° C. After washing, 1% agarose solution, in RPMI-1640 with 0.5% bovine serum albumin (BSA), was added to wells with or without an inhibitor, and plates were placed into a refrigerator before punching holes in the gelled agarose to create plaques (1 central hole surrounded by 6 peripheral ones per well).
Human neutrophils were obtained as described above, and resuspended in RPMI medium supplemented with 0.5% BSA at 5×10^6 cells/mL. After combining equal volumes of neutrophil suspension and medium (either with DMSO or a serial dilution of the test compound in DMSO), neutrophils were aliquoted into the peripheral holes, while the central hole received fMLP (5 μM). Plates were incubated at 37° C. in the presence of 5% CO2 for 4 hr, followed by termination of migration by the addition of 1% glutaraldehyde solution in D-PBS. After removing the agarose layer, wells were washed with distilled water and dried.
Analysis of neutrophil migration was conducted on a Nikon DIAPHOT® inverted microscope (1× objective) video workstation using the NIH 1.61 program. Using Microsoft Excel and Table Curve 4 (SSPS Inc., Chicago Ill.) programs, a migration index was obtained for each of the studied conditions. Migration index was defined as the area under a curve representing number of migrated neutrophils versus the net distance of migration per cell.
Using the methods described in Examples 3-5, above, compounds of the invention were tested for inhibitory activity and potency in assays of stimulated B and T cell proliferation, neutrophil (PMN) migration, and neutrophil (PMN) elastase release. In Table 4, the values shown are effective concentrations of the compound (EC50; μM). Where no value is given, no assay was performed.

PI3Kα [8] = biological target: T3, PI3Kα (Homo sapiens, UniProt P42336); experiment: Biochemical assay using 200 μM ATP, Alpha
T3 construct: His tag (pFastbac HTb vector) (N); FLAG; made in house; host or cells: Sf21 insect cells (baculovirus)
T3 sequence (P42336 whole entry): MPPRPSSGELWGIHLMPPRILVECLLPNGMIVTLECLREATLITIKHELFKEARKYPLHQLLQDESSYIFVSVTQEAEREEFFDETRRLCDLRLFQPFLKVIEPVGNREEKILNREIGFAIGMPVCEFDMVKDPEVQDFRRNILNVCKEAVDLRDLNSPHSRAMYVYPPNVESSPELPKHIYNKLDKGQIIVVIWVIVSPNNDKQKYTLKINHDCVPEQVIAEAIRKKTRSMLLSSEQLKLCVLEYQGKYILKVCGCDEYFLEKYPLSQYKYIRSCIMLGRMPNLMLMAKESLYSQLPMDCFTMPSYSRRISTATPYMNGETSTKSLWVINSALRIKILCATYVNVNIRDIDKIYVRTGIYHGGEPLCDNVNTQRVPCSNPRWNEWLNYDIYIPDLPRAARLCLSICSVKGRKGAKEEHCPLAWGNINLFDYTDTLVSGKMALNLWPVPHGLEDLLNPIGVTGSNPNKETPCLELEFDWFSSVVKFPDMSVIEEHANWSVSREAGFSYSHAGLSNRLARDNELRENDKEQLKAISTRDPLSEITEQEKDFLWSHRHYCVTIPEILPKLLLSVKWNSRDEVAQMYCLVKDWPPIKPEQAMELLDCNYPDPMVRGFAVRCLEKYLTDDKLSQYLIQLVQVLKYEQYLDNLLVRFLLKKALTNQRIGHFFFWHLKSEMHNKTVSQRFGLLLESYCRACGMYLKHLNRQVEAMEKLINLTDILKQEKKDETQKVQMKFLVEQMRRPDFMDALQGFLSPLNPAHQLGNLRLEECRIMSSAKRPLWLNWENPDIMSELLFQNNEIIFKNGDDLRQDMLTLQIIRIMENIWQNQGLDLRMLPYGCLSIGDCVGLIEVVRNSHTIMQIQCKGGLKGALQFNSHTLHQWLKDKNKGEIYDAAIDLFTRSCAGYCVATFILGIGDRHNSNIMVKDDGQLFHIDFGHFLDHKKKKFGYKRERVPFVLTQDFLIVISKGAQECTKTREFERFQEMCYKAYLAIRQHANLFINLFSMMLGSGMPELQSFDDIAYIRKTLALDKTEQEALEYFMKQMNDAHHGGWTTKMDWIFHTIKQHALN
T3 sequence (P27986 whole entry partner): as the sequence (P27986 whole entry partner) above
Method: as §3, §4, §5, §6, §7, §8

PI3Kα [9] = biological target: T3, PI3Kα; experiment: Biochemical assay of PI3K potency and selectivity using 20 μM ATP, Alpha; details: for Alpha/Delta Ratio: ratio of IC50 values, > = hypothetical ratio with 100 μM substituted for the missing IC50; for remaining activity at 100 µM: read-out: percent activity remaining at 100 μM, 20 μM ATP, 100 μM compound did not inhibit by at least 50%
Procedure, shortened: as §1

PI3Kβ [10] = biological target: T4, PI3Kβ (Homo sapiens, UniProt P42338); experiment: Biochemical assay of PI3K potency and selectivity using 20 μM ATP, Beta; details: 20 μM ATP; for Beta/Delta Ratio: ratio of IC50 values, > = hypothetical ratio with 100 μM substituted for the missing IC50; for IC50: read-out: Beta IC50
T4 construct: His tag (pFastbac HTa vector) (N); FLAG (N); made in house; host or cells: Sf21 insect cells (baculovirus)
T4 sequence (P42338 whole entry): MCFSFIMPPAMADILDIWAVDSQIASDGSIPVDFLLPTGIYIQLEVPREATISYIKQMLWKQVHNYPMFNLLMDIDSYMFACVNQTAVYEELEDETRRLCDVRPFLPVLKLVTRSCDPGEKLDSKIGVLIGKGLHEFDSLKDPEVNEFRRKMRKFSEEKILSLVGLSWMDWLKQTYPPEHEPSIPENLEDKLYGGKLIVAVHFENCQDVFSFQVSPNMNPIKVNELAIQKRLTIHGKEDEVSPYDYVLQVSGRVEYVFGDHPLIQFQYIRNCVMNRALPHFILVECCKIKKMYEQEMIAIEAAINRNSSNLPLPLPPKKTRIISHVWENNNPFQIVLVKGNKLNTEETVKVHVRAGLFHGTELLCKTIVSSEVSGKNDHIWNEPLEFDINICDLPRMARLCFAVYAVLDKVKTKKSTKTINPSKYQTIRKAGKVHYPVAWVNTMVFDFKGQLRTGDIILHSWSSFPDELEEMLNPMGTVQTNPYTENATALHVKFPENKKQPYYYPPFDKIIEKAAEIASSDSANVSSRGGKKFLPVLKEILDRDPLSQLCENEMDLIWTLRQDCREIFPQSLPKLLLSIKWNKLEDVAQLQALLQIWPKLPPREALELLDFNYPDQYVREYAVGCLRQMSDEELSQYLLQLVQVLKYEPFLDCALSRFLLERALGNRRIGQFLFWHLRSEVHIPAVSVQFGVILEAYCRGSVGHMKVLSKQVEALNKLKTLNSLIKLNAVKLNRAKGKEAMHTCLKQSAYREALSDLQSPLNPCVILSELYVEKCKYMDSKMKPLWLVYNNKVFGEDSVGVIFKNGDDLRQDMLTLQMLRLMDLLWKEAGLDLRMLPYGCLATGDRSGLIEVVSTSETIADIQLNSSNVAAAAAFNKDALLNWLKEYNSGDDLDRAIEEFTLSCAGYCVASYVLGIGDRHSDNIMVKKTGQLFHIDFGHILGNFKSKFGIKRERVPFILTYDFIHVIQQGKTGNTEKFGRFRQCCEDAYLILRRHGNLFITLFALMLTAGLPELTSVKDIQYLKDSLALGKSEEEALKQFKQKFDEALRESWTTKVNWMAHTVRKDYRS
T4 sequence (P27986 whole entry partner): as the sequence (P27986 whole entry partner) above
Procedure, shortened: as §1

PI3Kβ [11] = biological target: T4, PI3Kβ; experiment: Biochemical assay using 200 μM ATP, Beta
Method: as §3, §4, §5, §6, §7, §8

mouse = experiment: Mouse air pouch, TNF-α challenge, elastase exocytosis in lavage; assay type: in vivo; details: 32 mg/kg in LABRAFIL one hour before and two hours after TNF-α, FIG. 9
[12] = Levels of D-030 in circulation (air pouch test); assay type: in vivo; details: rat, blood, po; rats, 100 mg/kg in PEG 400 orally, twelve hours following dosing; read-out: Average compound in circulation
Method: (§2) The test was performed as follows: on day zero, groups of rats were shaved and 10 ml of air was injected subcutaneously on the back of each, forming a pouch. On day three, 10 ml of air was reinjected. […] Six hours following dosing, the air pouches of both groups received 2.5 ng of TNF. Twelve hours following dosing, the pouches were washed with saline, and the resulting lavage fluid was analyzed for leukocyte counts and neutrophil elastase activity. In addition, blood was drawn to determine the levels of D-030 in circulation. […] Reductions in specific leukocyte counts were as follows: neutrophils (90%), eosinophils (66%), and lymphocytes (70%).

rats = experiment: Six-day air pouch model, TNF challenge, leukocyte counts and neutrophil elastase in lavage fluid; assay type: in vivo, rat; details: 100 mg/kg orally, TNF 2.5 ng
Method: The six-day air pouch model is an in vivo inflammation model that histologically resembles a joint synovium. A lining of organized mononuclear cells and fibroblasts develops that closely resembles a synovial cavity. The model represents an “acute” model of a chronic disease (e.g., rheumatoid arthritis). This model allows for the in vivo evaluation of agents to block cellular influx into the air pouch under the influence of an inflammatory stimulus.
as §2

osteoclasts = experiment: Osteoclast function, pit depths on dentine slices; assay type: cell-based, mouse; details: inhibitor 100 nM + osteopontin (OPN) 25 μg/mL, 72 hr; two experiments; OPN alone 10 ± 0.5 and 9 ± 0.4
Method: To analyze the effect of the PI3Kδ inhibitor D-000 on osteoclasts, mouse bone marrow cells were isolated and differentiated them to osteoclasts by treating the cells with Macrophage Colony Stimulating Factor^−1 (mCSF^−1) and Osteoprotegerin Ligand (OPGL) in serum-containing medium (αMEM with 10% heat-inactivated FBS; Sigma) for 3 days. On day four, when the osteoclasts had developed, the medium was removed and cells were harvested. The osteoclasts were plated on dentine slices at 10^5 cells/well in growth medium, i.e., αMEM containing 1% serum and 2% BSA with […] and 10 ng/mL mCSF-1. After 3 hr, the medium was changed to 1% serum and 1% BSA, with or without osteopontin (25 μg/mL) and the PI3K inhibitors (100 nM). The medium was changed every 24 hours with fresh osteopontin and the inhibitors. At 72 hr, the medium was removed, and the dentine surfaces were washed with water to remove cell debris and stained with acid hematoxylin. Excess stain was washed and the pit depths were quantitated using confocal microscopy.

[13] = 20 μM ATP, read-out: Delta IC50
[14] = stimulated T cell proliferation

Row | SMILES | IC50 (PI3Kγ [1]) [nM] | EC50 [2] [nM] | EC50 (human neutrophils [3]) [nM] | IC50 (PI3Kδ [4]) [nM] | IC50 (PI3Kδ [5]; [13]) [nM] | EC50 (human neutrophils [7]) [nM] | Gamma/Delta Ratio (PI3Kγ [1]) | Alpha/Delta Ratio (PI3Kα [8]) | EC50 (T cell proliferation; [14]) [nM] | Alpha/Delta Ratio (PI3Kα [9]; 20 μM ATP) | Beta/Delta Ratio (PI3Kβ [10]) | Beta/Delta Ratio (PI3Kβ [11]) | other results
1 | Cc1cccc2nc(CSc3ncnc4[nH]cnc34)n(-c3ccccc3Cl)c(=O)c12 [Compound D-026, 3-(2-Chlorophenyl)-5-methyl-2-(9H-purin-6-ylsulfanylmethyl)-3H-quinazolin-4-one] | 13000 ± 10000 | 300 ± 100 | 200 ± 200 | 380 ± 200 | 80 | 300 ± 300 | – | – | – | – | – | – | melting point: 227.8 to 230.1 °C (dec.); EC50 (basophils; Homo sapiens, read-out: EC50, suppression of histamine release): ~25 nM; Suppression of histamine release (basophils; anti-IgE, at 1,000 nM): ~100%; Effect on histamine release, basophils stimulated with fMLP (basophils; fMLP stimulus): Neither compound elicited any effect; EC50 (T cell proliferation; T-cell): 3500 nM; IC50 (PI3Kγ [6]): 1700 nM
2 | Cc1cccc2nc(Cn3cnc4c(N)ncnc43)n(-c3ccccc3C(C)C)c(=O)c12 [Compound D-029, 2-(6-Aminopurin-9-ylmethyl)-3-(2-isopropylphenyl)-5-methyl-3H-quinazolin-4-one] | 13000 ± 700 | 100 ± 30 | 500 ± 600 | 340 ± 80 | 60 | 300 | 37 | 653 | 3400 ± 2000 | 882 | 54 | 101 | melting point: 258 to 258.2 °C; IC50 (PI3Kα [9]; 20 μM ATP, read-out: Alpha IC50): 49000 nM; IC50 (PI3Kβ [10]): 3000 nM; IC50 (PI3Kβ [11]): 34000 ± 4000 nM
3 | Cc1ccccc1-n1c(Cn2cnc3c(N)ncnc32)nc2cccc(C)c2c1=O [Compound D-030, 2-(6-Aminopurin-9-ylmethyl)-5-methyl-3-o-tolyl-3H-quinazolin-4-one] | – | 100 ± 100 | 400 ± 500 | – | – | 200 | – | – | 6000 | – | – | – | Elastase activity in the air pouch lavages of TNF challenged animals (mouse): significant decrease; concentration at 12 h [12]: 8.7 µM; Reduction in eosinophils count in lavage fluid (rats): 66%; Reduction in lymphocytes count in lavage fluid (rats): 70%; Reduction in neutrophils count in lavage fluid (rats): 90%; Reduction in total leukocytes in the lavage fluid compared to vehicle controls (rats): 82%; Reduction of neutrophil elastase levels versus vehicle controls (rats): 15%
4 | COc1ccccc1-n1c(CSc2ncnc3[nH]cnc23)nc2ccccc2c1=O [Compound D-036, 3-(2-methoxyphenyl)-2-(9H-purin-6-ylsulfanylmethyl)-3H-quinazolin-4-one] | 72000 | 900 ± 40 | 5500 ± 5000 | 4100 | – | 200 | 18 | 48 | 4100 | >226 | 69 | 36 | remaining activity at 100 µM (PI3Kα [9]): 63%
5 | O=c1c2ccccc2nc(CSc2ncnc3[nH]cnc23)n1Cc1ccccc1 [Compound D-037, 3-benzyl-2-(9H-purin-6-ylsulfanylmethyl)-3H-quinazolin-4-one] | 45000 | 1200 ± 400 | 1300 ± 400 | 3500 | 800 | 2000 | 13 | 64 | – | >125 | 100 | 33 | remaining activity at 100 µM (PI3Kα [9]): 64%; IC50 (PI3Kβ [10]): 80000 nM
6 | O=c1cc(N2CCOCC2)oc2c(-c3ccccc3)cccc12 [LY294002, reference compound] | – | 900 ± 500 | – | 2100 ± 1500 | 230 | – | – | – | – | – | – | – | inhibition at 10 µM (basophils; Homo sapiens, at the highest concentration, 10,000 nM): ~100%; Pit depths (osteoclast activity), Table 1 (osteoclasts): 4.6 ± 0.22 and 5.8 ± 0.5; IC50 (PI3Kδ [5]; Example 2 assay conditions, read-out: IC50, δ isoform of PI3K (FIG. 1)): 300 to 1000 nM
7 | COC[C@H]1OC(=O)c2coc3c2[C@@]1(C)C1=C(C3=O)[C@@H]2CCC(=O)[C@@]2(C)C[C@H]1OC(C)=O [Wortmannin, wortmannin] | – | – | – | – | – | – | – | – | – | – | – | – | Pit depths (osteoclast activity), Table 1 (osteoclasts): 5.7 ± 0.6 and 5 ± 0.5
